Results reported in patent publication US20230037538A1, “ANTI-ALS COMPOUNDS” (Takeda Pharmaceutical Company Limited, priority 2021, published 2023).

Experiments:
Format in all cases: cell-based, human
Mutant VCP fibroblast = assay: Nucleocytoplasmic assay (NCA) in patient fibroblast, mutant VCP fibroblast; settings: compound at 1 μM; DMSO-treated cell set as 100
Protocol: (§1) Skin-derived fibroblasts cells from Amnyotrophic Lateral Sclerosis (ALS) and Frontotemporal Degeneration (FTD) patients or affected individual acquired from the National Institute of Neurological Disorders and Stroke (NINDS #ND32947, ND41006, ND42717) were grown in HyClone DMEM High Glucose (GE Healthcare Life Sciences) supplemented with 15% FBS and 1% NEAA (Non-Essential Amino Acids), at 37° C. in a humidified atmosphere of 5% CO2. On day 1600 cells per well were seeded in a 96 well glass bottom plate or 1200 cells per well in a 24 well glass bottom plate. Incubated for 4 days, at 37° C. in a humidified atmosphere of 5% CO2, allowed cells to grow for 4 days. On day added compounds including vehicle control at the desired final concentration in fresh media to the respective wells, allowed cells to grow for an additional 4 days. On day 9 washed wells with PBS and fixed cells using 4% para formaldehyde (in PBS, prepared freshly, methanol free) for 15 mins at room temperature. Washed with PBS, blocked and permeabilized cells with 1% BSA+1% saponin (prepared in PBS) for 1 hour. For immunostaining the following primary antibodies were added in 1% BSA (in PBS) and incubated overnight at 4° C. Rabbit polyclonal TDP-43 C-terminal antibody (Proteintech 12892-1-AP)-1:350; mouse monoclonal HuR antibody (Santa Cruz sc-5261)-1:500. On the next day, added the following secondary antibodies Alexa 594 anti-rabbit (Thermofisher Scientific) and Alexa 488 anti-mouse (Thermofisher Scientific) (1:500) in 1% BSA (in PBS) and kept it in dark for 1-2 hours at room temperature. Wash and add DAPI in PBS for nuclear staining.
(§2) The immuno-stained cells were imaged with Nikon Ti inverted fluorescence microscope having CSU-22 spinning disk confocal and EMCCD camera. Plan Apo 20×/0.75 objective and NIS-Elements AR software were used for image acquisition. At least 15 images per well were taken. The exposure times for TDP-43 and HuR remained constant across one experiment. Each image acquired (in .nd format) was exported into three individual channel images (for DAPI, TDP-43, HuR) in .tiff format. The images were analyzed by the open source image analysis software Cell Profiller to calculate the signal intensities of TDP-43 present in the nucleus and cytoplasm in each cell. The DAPI image was used to count the total number of cells. The TDP-43 and HuR images are used to count the number of cells containing TDP-43 and/or HuR nuclear staining.
(§3) The nucleus/cytoplasm ratio of intensities of TDP-43 in each compound-treated (at 1 μM) cells comparing to DMSO-treated cell (which is set as 100) were shown.

Mutant TDP-43 fibroblast = assay: Nucleocytoplasmic assay (NCA) in patient fibroblast, mutant TDP-43 fibroblast; settings: compound at 1 μM; DMSO-treated cell set as 100
Protocol: as §1, §2, §3

[1] = system: Fibroblast from FTD affected individual; assay: Nucleocytoplasmic assay (NCA) in patient fibroblast, fibroblast from FTD affected individual; settings: compound at 1 μM; DMSO-treated cell set as 100
Protocol: as §1, §2, §3

FTD affected fibroblasts = assay: Stress granule assay in FTD affected fibroblasts (TDP-43 / HuR immunostaining after arsenite stress); settings: vehicle (DMSO) alone set at 100, lower = fewer TDP-43 aggregates; for activity at 1 µM: Homo sapiens, Fibroblast, 1 μM compound, read-out: Normalized average number of TDP-43 positive HuR aggregates per cell at 1 μM; for Normalized average number of TDP-43 positive HuR aggregates per cell at 1.5 μM: 1.5 μM compound
Protocol: In this assay, TDP-43 aggregates in stress granules were quantified after 24 hrs of drug treatment followed by 90 minutes of 100 μM arsenite stress.
On day 1 20,000 patient derived fibroblasts per well were seeded in a 24 well glass bottom plate or 6000 cells per well in a 96 well plate. On day 2 compounds were added at the desired final concentration in fresh media to the respective wells. On day 3 sodium arsenite was added at a final concentration of 500 μM. Incubated at 37° C. for 60 mins. On day 9 wells were washed with PBS and fixed cells using 4% para formaldehyde (in PBS, prepared freshly, methanol free) for 15 mins at room temperature. Washed with PBS, blocked and permeabilized cells with 1% BSA+1% saponin (prepared in PBS) for 1 hour. For Immunostaining primary antibodies were made in 1% BSA (in PBS) and incubated overnight at 4° C. Rabbit polyclonal TDP-43 C-terminal antibody (Proteintech 12892-1-AP)-1:350; mouse monoclonal HuR antibody (Santa Cruz sc-5261)-1:500. On the next day, added the following secondary antibodies Alexa 594 anti-rabbit (Thermofisher Scientific) and Alexa 488 anti-mouse (Thermofisher Scientific) (1:500) in 1% BSA (in PBS) and kept in dark for 1-2 hours at room temperature. Washed and added DAPI in PBS for nuclear staining. The images were analyzed by the open source image analysis software CellProfiler 2.1.1 (offered by Broad Institute of Harvard and MIT—www.cellprofiler.org). This software contains various modules which can be used to analyze images in different ways.
The lower the number, the fewer the TDP-43 aggregates compared to vehicle (DMSO) alone, which is set at 100.

Compound: COc1cnc2c(c1)c(/C=C/C1NCCc3cc(OCc4ccccc4)c(OC)cc31)cn2C (centres unmarked) [Example 7, 6-(benzyloxy)-7-methoxy-1-[(E)-2-(5-methoxy-1-methyl-1H-pyrrolo[2,3-b]pyridin-3-yl)ethenyl]-1,2,3,4-tetrahydroisoquinoline]
- nucleus/cytoplasm ratio of intensities of TDP-43, Mutant VCP fibroblast (Mutant VCP fibroblast): 191
- nucleus/cytoplasm ratio of intensities of TDP-43, Mutant TDP-43 fibroblast (Mutant TDP-43 fibroblast): 143
- nucleus/cytoplasm ratio of intensities of TDP-43, Fibroblast from FTD affected individual [1]: 175
- activity at 1 µM (FTD affected fibroblasts): 40%

Compound: COc1cc2c(cc1OCc1ccccc1)CCNC2/C=C/c1cnc2ncc(C)cn12 (centres unmarked) [AF, (E)-6-(benzyloxy)-7-methoxy-1-(2-(6-methylimidazo[1,2-a]pyrimidin-3-yl)vinyl)-1,2,3,4-tetrahydroisoquinoline]
- Normalized average number of TDP-43 positive HuR aggregates per cell at 1.5 μM (FTD affected fibroblasts): 65.5

Compound: COc1cc2c(cc1OCc1ccccc1)CCNC2/C=C/c1cnc2ncc(C(F)(F)F)cn12 (centres unmarked) [AD, (E)-6-(benzyloxy)-7-methoxy-1-(2-(6-(trifluoromethyl)imidazo[1,2-a]pyrimidin-3-yl)vinyl)-1,2,3,4-tetrahydroisoquinoline]
- Normalized average number of TDP-43 positive HuR aggregates per cell at 1.5 μM (FTD affected fibroblasts): 71.00
- activity at 1 µM (FTD affected fibroblasts): 83%

Compound: COc1cc2c(cc1OCc1ccccc1)CCNC2/C=C/c1cn(C)c2nccc(OC)c12 (centres unmarked) [Example 26, 6-(benzyloxy)-7-methoxy-1-[(E)-2-(4-methoxy-1-methyl-1H-pyrrolo[2,3-b]pyridin-3-yl)ethenyl]-1,2,3,4-tetrahydroisoquinoline]
- nucleus/cytoplasm ratio of intensities of TDP-43, Mutant VCP fibroblast (Mutant VCP fibroblast): 256
- nucleus/cytoplasm ratio of intensities of TDP-43, Fibroblast from FTD affected individual [1]: 146
- activity at 1 µM (FTD affected fibroblasts): 59%

Compound: COc1cc2c(cc1OCc1ccccc1)CCNC2/C=C/c1cnc2ncc(C(=O)O)cn12.Cl (centres unmarked) [AH, (E)-3-(2-(6-(benzyloxy)-7-methoxy-1,2,3,4-tetrahydroisoquinolin-1-yl)vinyl)imidazo[1,2-a]pyrimidine-6-carboxylic acid]
- Normalized average number of TDP-43 positive HuR aggregates per cell at 1.5 μM (FTD affected fibroblasts): 71.4

Compound: COc1cc2c(cc1OCc1ccccc1)CCNC2/C=C/c1cnc2ncc(F)cn12 (centres unmarked) [AC, (E)-6-(benzyloxy)-1-(2-(6-fluoroimidazo[1,2-a]pyrimidin-3-yl)vinyl)-7-methoxy-1,2,3,4-tetrahydroisoquinoline]
- activity at 1 µM (FTD affected fibroblasts): 85.8%

Compound: CCOC(=O)c1cnc2ncc(/C=C/C3NCCc4cc(OCc5ccccc5)c(OC)cc43)n2c1 (centres unmarked) [AG, Ethyl (E)-3-(2-(6-(benzyloxy)-7-methoxy-1,2,3,4-tetrahydroisoquinolin-1-yl)vinyl)imidazo[1,2-a]pyrimidine-6-carboxylate]
- activity at 1 µM (FTD affected fibroblasts): 87%

Compound: COc1cc2c(cc1OCc1ccccc1)CCNC2/C=C/c1cc2c(cc1C)OCCO2 (centres unmarked) [Example 4, 6-(benzyloxy)-7-methoxy-1-[(E)-2-(7-methyl-2,3-dihydro-1,4-benzodioxin-6-yl)ethenyl]-1,2,3,4-tetrahydroisoquinoline]
- nucleus/cytoplasm ratio of intensities of TDP-43, Mutant TDP-43 fibroblast (Mutant TDP-43 fibroblast): 130
- activity at 1 µM (FTD affected fibroblasts): 70.9%

Compound: COc1cc(C)c(/C=C/C2NCCc3cc(OCc4ccccc4)c(OC)cc32)cc1OC (centres unmarked) [Example 1, 6-(benzyloxy)-1-[(E)-2-(4,5-dimethoxy-2-methylphenyl)ethenyl]-7-methoxy-1,2,3,4-tetrahydroisoquinoline]
- nucleus/cytoplasm ratio of intensities of TDP-43, Mutant VCP fibroblast (Mutant VCP fibroblast): 153
- nucleus/cytoplasm ratio of intensities of TDP-43, Mutant TDP-43 fibroblast (Mutant TDP-43 fibroblast): 147
- nucleus/cytoplasm ratio of intensities of TDP-43, Fibroblast from FTD affected individual [1]: 148
- activity at 1 µM (FTD affected fibroblasts): 67%

Compound: COc1cc2c(cc1OCc1ccccc1)CCNC2/C=C/c1cc2c(cc1C)OCO2 (centres unmarked) [Example 5, 6-(benzyloxy)-7-methoxy-1-[(E)-2-(6-methyl-2H-1,3-benzodioxol-5-yl)ethenyl]-1,2,3,4-tetrahydroisoquinoline]
- nucleus/cytoplasm ratio of intensities of TDP-43, Mutant VCP fibroblast (Mutant VCP fibroblast): 179
- nucleus/cytoplasm ratio of intensities of TDP-43, Mutant TDP-43 fibroblast (Mutant TDP-43 fibroblast): 137
- nucleus/cytoplasm ratio of intensities of TDP-43, Fibroblast from FTD affected individual [1]: 139
- activity at 1 µM (FTD affected fibroblasts): 83.3%

Compound: COc1cnc2ncc(/C=C/C3NCCc4cc(OCc5ccccc5)c(OC)cc43)n2c1 (centres unmarked) [AE, (E)-6-(benzyloxy)-7-methoxy-1-(2-(6-methoxyimidazo[1,2-a]pyrimidin-3-yl)vinyl)-1,2,3,4-tetrahydroisoquinoline]
- Normalized average number of TDP-43 positive HuR aggregates per cell at 1.5 μM (FTD affected fibroblasts): 73.75

Compound: COc1cc2c(cc1OCc1ccccc1)CCNC2/C=C/c1cnc2ncccn12 (centres unmarked) [AA, (E)-6-(benzyloxy)-1-(2-(imidazo[1,2-a]pyrimidin-3-yl)vinyl)-7-methoxy-1,2,3,4-tetrahydroisoquinoline]
- activity at 1 µM (FTD affected fibroblasts): 85%

Compound: COc1cc2c(cc1OCc1ccccc1)CCNC2/C=C/c1ccc(-c2cncnc2)cc1Cl (centres unmarked) [Example 9, 6-(benzyloxy)-1-{(E)-2-[2-chloro-4-(pyrimidin-5-yl)phenyl]ethenyl}-7-methoxy-1,2,3,4-tetrahydroisoquinoline]
- nucleus/cytoplasm ratio of intensities of TDP-43, Mutant VCP fibroblast (Mutant VCP fibroblast): 200
